From US20080031866A1, “METHOD FOR MODULATING THE PHARMACOKINETICS AND METABOLISM OF A THERAPEUTIC AGENT” (priority 2006, published 2008)

Experiments:
[1] = IV pharmacokinetics of Compound 1 and its glucuronides in rats; assay type: in vivo, rat; conditions: Sprague Dawley, rat, plasma, Compound 1 2 mg/kg IV
Protocol: (§1) Two separate IV studies were carried out using two separate lots of animals. IV-A was run on the same lot of animals as the oral gavage study and IV-B was run on the same lot of animals as the intraduodenal and intra-colonic studies.
For the IV dosing solutions (IV), Compound 1 was prepared by addition to DI water containing 20% hydroxypropyl β-cyclodextran by weight.
(§2) For the IV and oral gavage dosing (sampling at jugular and portal vein), young adult male Sprague Dawley rats weighing 250-400 g were purchased from Hilltop Lab Animals Inc. All rat experiments were conducted under approved animal protocols. The rats for the oral gavage dosing were catheterized at Hilltop Lab Animals Inc, had two chronic catheters for sampling: jugular and portal, were housed in cages of Culex™ Automated Blood Sampler (ABS) and blood samples were collected simultaneously via both cannula and were controlled by the Culex™ ABS control software.
(§3) A quantitative method for determining the amount of (6,7-dimethoxy-2,4-dihydro-indeno[1,2-c]pyrazol-3-yl)-(3-fluoro-phenyl)-amine Compound 1 and its major metabolites, glucuronide A (Cpd 1-GluA) and glucuronide B (Cpd 1-GluB) (see Scheme A) in rat plasma was developed using phenacetin as an internal standard. [drawing 1]
(§4) The two glucuronide conjugates were prepared and purified to permit accurate quantification of the levels of intact parent Compound 1 versus Cpd 1-GluA and Cpd 1-GluB. Each standard curve for Compound 1, Cpd 1-GluA, and Cpd 1-GluB generated from rat plasma included ten concentration levels. […] The quantitative procedure for each sample included: sample preparation, HPLC separation and mass spectrometry detection.
(§5) The rat plasma was prepared using protein precipitation techniques. Reference standards and quality control samples in rat plasma for Compound 1 were transferred to a 96 deep-well plate. The precipitation solution contained 100 ng/ml of internal standard in acetonitrile. 300 μl of precipitation solution were added to 100 μl of each standard, quality control and plasma sample. Samples were vortexed for 10 mins, then centrifuged at 4500 RPM for 10 mins. 10 μl of each sample were injected for LC/MS/MS analysis.
(§6) The HPLC column chosen for the bioanalysis was purchased from Thermo Electron (Hypersil BetaBasic C18, 5 cm×2.1 mm). The eluting solvents were composed of Solvent A: 0.1% formic acid in H2O and Solvent B: 0.1% formic acid in acetonitrile. A step gradient was used and flow rate was 300 μl/min. The total run time was 3.2 mins. Solvent B was increased from 35% at 0 min to 75% at 2.1 mins and decreased back to 35% at 2.2 mins. The retention times for Compound 1, phenacetin, Cpd 1-GluA and Cpd 1-GluB were 1.1 min, 0.9 min, 1.3 min, and 1.6 min, respectively.
(§7) API3000 with a Turbo Ionspray interface from Applied Biosystems was used for the detection of Compound 1, the internal standard and major metabolites. Electrospray ionization was performed in the positive ion mode heated nebulizer with a temperature of 300° C. LC/MS/MS chromatograms were acquired in MRM (multiple reaction mode). The MRM transitions for Compound 1, the internal standard, Cpd 1-GluA and Cpd 1-GluB were from 326.3 to 190.6, 181.1 to 110.3, 502.2 to 368.3 and 502.2 to 326.4, respectively.
Pharmacokinetic analysis of the plasma concentration data was performed to determine the maximum plasma concentration (Cmax) for the oral dose, and the concentration at zero time (C0; Compound 1 only) by the extrapolation of drug concentrations back to the time of i.v. dosing, the time to maximum plasma concentration (Tmax) following the oral dose, area under the plasma concentration vs. time curve (AUC), terminal half-life (t1/2), plasma clearance (CL/F; Compound 1 only), and volume of distribution at steady state (Vdss; Compound 1 only) for the i.v. dose, using the WinNonlin (Version 3.1, Pharsight, Palo Alto, Calif.) validated computer program.

[2] = Oral gavage pharmacokinetics, jugular and portal vein sampling, first pass metabolism; assay type: in vivo, rat; conditions: for AUC: po, 75 mg/kg; for AUC / concentration at 0 h / concentration at 0.08 h / concentration at 0.25 h / concentration at 0.33 h / concentration at 0.5 h / concentration at 0.67 h / concentration at 1 h / concentration at 1.25 h / concentration at 1.5 h / concentration at 2 h / concentration at 3 h / concentration at 4 h / concentration at 6 h / concentration at 12 h / concentration at 24 h / Cmax: rats N=4; for Cmax: read-out: Cmax average ± standard deviation
Protocol: as §1
For the oral gavage dosing, Compound 1 was prepared in neat PEG-400. For the intraduodenal and intracolonic dosing solutions, Compound 1 was added to neat Tween 80, the mixture was sonicated for thirty minutes at 45° C. until Compound 1 was completely dissolved and then deionized (DI) water was added to form a solution consisting of 20% Tween 80 and 80% DI water by weight.
as §2, §3, §4, §5, §6
as §7, with “respectively. […]” for “respectively.”

[3] = male, Sprague Dawley, rat, plasma (jugular vein sample), Compound 1 75 mg/kg oral gavage, jugular sample
[4] = male, Sprague Dawley, rat, plasma (portal vein sample), Compound 1 75 mg/kg oral gavage, portal sample
[5] = male, Sprague Dawley, rat, portal vein plasma, Compound 1 75 mg/kg oral gavage, portal sample

Structure (SMILES): COc1cc2c(cc1OC)-c1n[nH]c(N(c3cccc(F)c3)[C@H]3O[C@@H](C(=O)O)[C@H](O)[C@@H](O)[C@@H]3O)c1C2 [Cpd 1-GluA]
- AUC ([1]; male rats N=4, read-out: AUC average ± standard deviation): 8.21 µg·h/mL
- Cmax ([1]; male rats N=4, read-out: Cmax average ± standard deviation): 2.97 µg/mL
- concentration at 0 h ([1]; male rats N=4, retro orbital sinus, 0 hrs): 0 µg/mL
- concentration at 0.08 h ([1]; male rats N=4, retro orbital sinus, 0.08 hrs): 2.44 µg/mL
- concentration at 0.33 h ([1]; male rats N=4, retro orbital sinus, 0.33 hrs): 2.97 µg/mL
- concentration at 1 h ([1]; male rats N=4, retro orbital sinus, 1 hr): 1.67 µg/mL
- concentration at 2 h ([1]; male rats N=4, retro orbital sinus, 2 hrs): 0.492 µg/mL
- concentration at 4 h ([1]; male rats N=4, retro orbital sinus, 4 hrs): 0.0686 µg/mL
- concentration at 8 h ([1]; male rats N=4, retro orbital sinus, 8 hrs): 0.369 µg/mL
- concentration at 24 h ([1]; male rats N=4, retro orbital sinus, 24 hrs): 0.0186 µg/mL
- Tmax ([1]; male rats): 18 min
- Ratio of metabolite to Compound 1 ([2]; jugular vein, oral gavage): 78
- AUC ([2]; male, Sprague Dawley, rat, plasma (jugular vein sample), Compound 1 75 mg/kg oral gavage, jugular sample, read-out: AUC average ± standard deviation 0 to 24 hours): 117 µg·h/mL
- AUC ([2]; male, Sprague Dawley, rat, plasma (jugular vein sample), Compound 1 75 mg/kg oral gavage, jugular sample, read-out: AUC average ± standard deviation 0 to infinite hours): 169 µg·h/mL
- concentration at 0 h [2, 3]: 0.0022 µg/mL
- concentration at 0.08 h [2, 3]: 2.57 µg/mL
- concentration at 0.25 h [2, 3]: 12.4 µg/mL
- concentration at 0.33 h [2, 3]: 16.1 µg/mL
- concentration at 0.5 h [2, 3]: 15.7 µg/mL
- concentration at 0.67 h [2, 3]: 14.7 µg/mL
- concentration at 1 h [2, 3]: 14.3 µg/mL
- concentration at 1.25 h [2, 3]: 11.7 µg/mL
- concentration at 1.5 h [2, 3]: 11.7 µg/mL
- concentration at 2 h [2, 3]: 11.1 µg/mL
- concentration at 3 h [2, 3]: 6.49 µg/mL
- concentration at 4 h [2, 3]: 3.75 µg/mL
- concentration at 6 h [2, 3]: 4.29 µg/mL
- concentration at 12 h [2, 3]: 5.17 µg/mL
- concentration at 24 h [2, 3]: 2.47 µg/mL
- Cmax [2, 3]: 17.6 µg/mL
- concentration at 0.67 h [2, 4]: 26 µg/mL
- concentration at 1 h [2, 4]: 11.7 µg/mL
- concentration at 1.25 h [2, 4]: 15.1 µg/mL
- concentration at 1.5 h [2, 4]: 12.2 µg/mL
- concentration at 2 h [2, 4]: 14.7 µg/mL
- concentration at 3 h [2, 4]: 10.7 µg/mL
- concentration at 4 h [2, 4]: 7.5 µg/mL
- concentration at 6 h [2, 4]: 11.6 µg/mL
- concentration at 12 h [2, 4]: 8 µg/mL
- Tmax ([2]; male, Sprague Dawley, rat, plasma, rats, Compound 1 75 mg/kg oral gavage): 54 min
- AUC ([2]; male, Sprague Dawley, rat, portal vein plasma, Compound 1 75 mg/kg oral gavage, portal sample, read-out: AUC average ± standard deviation 0 to 24 hours): 190 µg·h/mL
- AUC ([2]; male, Sprague Dawley, rat, portal vein plasma, Compound 1 75 mg/kg oral gavage, portal sample, read-out: AUC average ± standard deviation 0 to infinite hours): 271 µg·h/mL
- concentration at 0 h [2, 5]: 0.0013 µg/mL
- concentration at 0.08 h [2, 5]: 9.46 µg/mL
- concentration at 0.25 h [2, 5]: 18.9 µg/mL
- concentration at 0.33 h [2, 5]: 22.4 µg/mL
- concentration at 0.5 h [2, 5]: 17.4 µg/mL
- concentration at 24 h [2, 5]: 5.07 µg/mL
- Cmax [2, 5]: 29.2 µg/mL
- Systemic exposure of Glu A relative to Glu B ([2]; oral gavage dosing): ~66 times
- Mean ratio of metabolite to Compound 1 ([2]; portal system, oral gavage): 20
